Assay results as given in the METLIN SMRT retention time set (Domingo-Almenara et al. 2019).

Assay: gradient 5% acetonitrile 3 min, to 50% in 2 min, to 85% in 15 min, held 3 min, 100 µL/min
Conditions: column: Zorbax Extend-C18 2.1 x 50 mm; eluents: water / acetonitrile, 0.1% formic acid
How it was run: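 The mobile phases were water and acetonitrile, each with 0.1% formic acid, pumped at 100 μL/min through a Zorbax Extend-C18 column (2.1 × 50 mm, 1.8 μm). Pure standards were injected as mixtures of ~100 molecules and detected by a quadrupole time-of-flight mass spectrometer in positive and negative ionization mode. Retention time came from computationally picked adduct peaks, each inspected by hand.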

| Structure (SMILES) | RP-LC retention time |
| --- | --- |
| CN1CCN(C(=O)C2CCN(S(=O)(=O)c3cc4c(cc3Cl)NC(=O)CO4)CC2)CC1 | 580 s |
| O=C(c1cccnc1)N1CC(n2cc(COCC3CC3)nn2)C1 | 597 s |
| CCOC(=O)CSc1nc2ccccc2[nH]1 | 596 s |
| CCN1C(=O)C2CC3(CCN(C(=O)c4ccoc4)CC3)CN2C1=O (configuration not stated) | 628 s |
| CC1=C(c2ccc(F)cc2)S(=O)(=O)N=C1N1CCCN(C(=O)c2ccc(F)cc2)CC1 | 835 s |
| Cc1ccc(S(=O)(=O)N2CCCC2C(=O)Nc2ccc(Br)cc2)cc1 (configuration not stated) | 1020 s |
| Nc1nc(OCc2cc(Br)cs2)c2[nH]cnc2n1 | 687 s |
| Cc1cc(OCCN2CC2)c2ccccc2n1 | 664 s |
| Cc1cccc(C)c1NC(=O)Cn1nc(N2CCC(C)CC2)c2ccccc2c1=O | 1240 s |
| NC(=O)CNC(=O)c1nc(-c2ccsc2)nc2c1OCCO2 | 613 s |
| O=C(NCc1ccc(C(F)(F)F)cc1)c1cn2c(n1)CCCC2 | 646 s |
| Cc1nc2ccn(Cc3ccco3)c(=O)c2cc1C(=O)N1CCN(c2ccccn2)CC1 | 602 s |
| O=C(NCCc1ccccc1)c1ccc2c(cnn2CC(=O)N2CCCCCC2)c1 | 791 s |
| Cc1ccc(NS(=O)(=O)c2cc3n(c2)CCCN(C)C3=O)cc1C | 720 s |
| Cc1nn2c(S(=O)(=O)N3CCN(C4CCCCC4)CC3)c(C)nc2s1 | 608 s |
| CCNC(=O)C1CCCN(c2nc3ncn(CC(=O)Nc4ccc5c(c4)CCC5)c(=O)c3s2)C1 (configuration not stated) | 717 s |
| COc1ccccc1NC(=O)Cn1c(C(F)(F)F)nc2cc3c(cc21)OCCO3 | 886 s |
| NC(=O)c1cn(Cc2c(F)cccc2F)nn1 | 684 s |

| Structure (SMILES) | RP-LC retention time |
| --- | --- |
| Cc1ccc(C)c(NS(=O)(=O)c2cc(-c3nc(C(C)(C)C)cs3)cs2)c1 | 1310 s |
| CC1=C(c2ccccc2)S(=O)(=O)N=C1N1CCCN(S(=O)(=O)c2cccnc2)CC1 | 769 s |
| CC(=O)N1CCc2cc(C)c(S(=O)(=O)N3CCN(C)CC3)cc21 | 585 s |
| O=C(c1ccc(OCC2CCCN2C(=O)c2cccs2)cc1)N1CCCC1 (configuration not stated) | 815 s |
| Cc1nnc2c(=O)n(CC(=O)N3CCCC(C)C3)c3cccnc3n12 (configuration not stated) | 668 s |
| O=C(Nc1ccc2c(c1)OCCO2)C1CCN(c2cnc3nccnc3c2)CC1 | 666 s |
| Cc1cccc(NC(=O)N2CCN(CC(=O)c3c(C)n(C)c4ccccc34)CC2)c1 | 693 s |
| NC(=O)[C@H]1CCCCc2c1[nH]c1ccc(Cl)cc21 | 819 s |
| CN(C(=O)Cn1c(=O)oc2ccccc21)C1CCc2nn(C)c(=O)n2CC1 (configuration not stated) | 633 s |
| COc1ccc2[nH]cc(CCNC(=O)c3ccc(N4CCCC4)c(S(=O)(=O)N4CCCC4)c3)c2c1 | 921 s |
| Cn1nccc1C(=O)N1CCN(C(=O)c2cc(-c3ccncc3)n[nH]2)CC1 | 523 s |
| CC(=O)N1CCCN(C2=NS(=O)(=O)C(c3ccccc3)=C2C)CC1 | 665 s |
| O=C(NCC1CCN(c2cc(-c3cccnc3)[nH]n2)CC1)c1ccc2c(c1)OCO2 | 600 s |
| Cc1ncc2c(n1)C[C@@H]1CC[C@H]2N1S(=O)(=O)c1ccc2c(c1)C(C)(C)C(=O)N2 | 636 s |
| O=C(C1CCCCC1)N1CCCC1c1nc2ccccc2s1 (configuration not stated) | 966 s |
| CC(C)CNC(=O)NCCC1CCN(S(=O)(=O)c2ccccc2)CC1 | 808 s |
| Cn1c(C(=O)NCC2CCCO2)cc2c(=O)oc3ccccc3c21 (configuration not stated) | 713 s |
| O=C1C(c2cccnc2)N(CC2CCCCC2)C(=O)CN1c1ccccc1 (configuration not stated) | 771 s |

Results, then the compound that gave them:

| RP-LC retention time | Structure (SMILES) |
| --- | --- |
| 1140 s | CC(C)(C)c1cc(C(=O)NCc2ccccc2)nc2ccnn12 |
| 887 s | COc1cccc(CNC(=O)CN2C(=O)C3CCCCN3c3ccc(S(=O)(=O)N(C)C)cc32)c1 (configuration not stated) |
| 734 s | CCOc1ccc(CN(Cc2cc(=O)n3cc(Cl)ccc3n2)CC(C)C)cc1 |
| 930 s | CCOC(=O)c1cnc2ccc(OCC)cc2c1N1CCN(c2ccccc2)CC1 |
| 815 s | CCc1ccc(CNC(=O)Cc2c(C(=O)O)c(C)cn2C)cc1 |
| 785 s | COCC(C)NC(=O)CN1c2ccc(F)cc2-c2ccccc2S1(=O)=O (configuration not stated) |
| 1040 s | CCOC(=O)c1ccc(NC(=O)c2cn3c4c(ccc(Cl)c4c2=O)OCC3)cc1 |
| 1270 s | COc1ccc2c(c1)CCc1sc(NC(=O)c3cc(Cl)ccc3OC)nc1-2 |
| 831 s | O=C(COc1ccccc1)NCCSc1c[nH]c2ccccc12 |
| 792 s | CCc1noc(NC(C)=O)c1-c1ccc(OC)c(S(=O)(=O)Nc2ccc(F)c(F)c2)c1 |
| 816 s | CC(Cc1ccco1)NC(=O)CN1C(=O)CN(C(=O)NCc2ccccc2)c2ccccc21 (configuration not stated) |
| 682 s | CCCn1cnc2ccc(-c3noc(CNS(=O)(=O)c4ccccc4)n3)cc21 |
| 1090 s | Cc1cccc(N2C(=O)N(Cc3cccc(F)c3)S(=O)(=O)c3cccnc32)c1 |
| 807 s | COc1ccc(NS(=O)(=O)c2[nH]ncc2C(=O)NCc2ccc(SC)cc2)cc1 |
| 812 s | CCNC(=O)C1CCN(C2=NS(=O)(=O)C(c3ccc(C(C)C)cc3)=C2C)CC1 |
| 1230 s | CC(C)n1c(=O)oc2cc(-c3noc(-c4cc(F)ccc4Cl)n3)ccc21 |

| RP-LC retention time | Structure (SMILES) |
| --- | --- |
| 1030 s | CC1CCN(c2nc(-c3ccc([N+](=O)[O-])cc3)nc3ccccc23)CC1 |
| 886 s | O=C(Nc1ccc(OCc2nnc(-c3ccccc3)o2)cc1)c1n[nH]c2c1CCCC2 |
| 702 s | COc1ccc(-c2cn3c(CC(=O)Nc4ccccc4)csc3n2)cc1OC |
| 870 s | COC(=O)c1ccc(-c2nc3cnccn3c2Nc2cc(OC)ccc2OC)cc1 |
| 882 s | Cc1ccc(NC(=O)Cn2c(=O)n(-c3ccc(F)cc3)c(=O)c3c2cc(C)n3C)cc1F |
| 567 s | Oc1c(C(c2ccccn2)N2CCN(c3ccccc3F)CC2)ccc2cccnc12 (configuration not stated) |
| 1150 s | Cc1ccc(NC(=O)c2cc(C3CC3)n3nccc3n2)c(F)c1 |
| 659 s | COc1ccc(CN2C[C@@H]3C(=O)N(Cc4ccc5c(c4)OCO5)C(=O)[C@@H]3C2)cc1OC |
| 811 s | COC(=O)c1cc(OCC(=O)Nc2cccc(OC)c2)c2cc(OC)ccc2n1 |
| 983 s | CN(CCc1noc(-c2ccc(F)cc2)n1)C(=O)Nc1ccccc1Cl |
| 713 s | CCCNc1cc(N2CCC(CCC(=O)NCc3ccc(F)c(Cl)c3)CC2)ncn1 |
| 866 s | CCc1nn2c(CNC(=O)c3cccs3)c(-c3ccccc3)nc2s1 |
| 1310 s | O=C1COc2ccc(Cl)cc2N1Cc1nc(-c2ccc(-c3csc(C4CC4)n3)cc2)no1 |
| 731 s | Cc1ccc(-c2ccc(CNc3ncn[nH]3)o2)cc1Cl |
| 616 s | CC(NC(=O)C1CCN(CCc2cn(C)c3ncccc23)CC1)c1ccc(F)cc1 (configuration not stated) |
